Reference: ChEMBL document CHEMBL4715872, “Soluble Guanylate Cyclase Inhibitors Discovered among Natural Compounds” (J Nat Prod, 2020)
Calls of active or inactive are those of the source. The rule behind the calls is not given here.

How the values were obtained:
HUVEC [1] = experiment: Selectivity ratio of inhibition of human sGC expressed in HUVEC cells assessed as reduction in GMP level at 20 uM in presence of NPS to inhibition of human sGC expressed in HUVEC cells assessed as reduction in GMP level at 20 uM in presence of NPS/BAY-412272; assay type: cell-based
[2] = Inhibition of human sGC expressed in HUVEC cells assessed as reduction in GMP level incubated for 2 hrs by ELISA; assay type: cell-based
HEPC-CB.1 [3] = experiment: Inhibition of angiogenesis in HEPC-CB1 cells assessed as decrease in number of closed structures at 10 uM after 13 hrs by fluorescence inverted microscopic analysis; assay type: functional, cell-based; details: Homo sapiens
[4] = Inhibition of bovine lung sGC assessed as reduction in GMP level incubated for 2 hrs in presence of NPS by ELISA; assay type: tissue-based, Bos taurus
HEPC-CB.1 [5] = experiment: Inhibition of angiogenesis in HEPC-CB1 cells assessed as decrease in total length of pseudovessels at 10 uM after 13 hrs by fluorescence inverted microscopic analysis; assay type: functional, cell-based; details: Homo sapiens
[6] = Inhibition of human sGC expressed in HUVEC cells assessed as reduction in GMP level incubated for 24 hrs in presence of NPS by ELISA; assay type: cell-based
HUVEC [7] = experiment: Selectivity ratio of IC50 for inhibition of human sGC expressed in HUVEC cells assessed as reduction in GMP level incubated for 2 hrs to human sGC expressed in HUVEC cells assessed as reduction in GMP level incubated for 2 hrs in presence of NPS; assay type: cell-based
HEPC-CB.1 [8] = experiment: Inhibition of angiogenesis in HEPC-CB1 cells assessed as decrease in pseudovessels at 10 uM after 13 hrs by fluorescence inverted microscopic analysis; assay type: functional, cell-based; details: Homo sapiens
HUVEC [9] = experiment: Inhibition of human sGC expressed in HUVEC cells assessed as reduction in GMP level at 2 uM in presence of NPS by ELISA relative to control; assay type: cell-based
[10] = Inhibition of bovine lung sGC assessed as reduction in GMP level incubated for 2 to 12 hrs in presence of NPS by ELISA; assay type: tissue-based, Bos taurus
HUVEC [11] = experiment: Selectivity ratio of inhibition of human sGC expressed in HUVEC cells assessed as reduction in GMP level at 2 uM in presence of NPS to inhibition of human sGC expressed in HUVEC cells assessed as reduction in GMP level at 2 uM in presence of NPS/BAY-412272; assay type: cell-based
[12] = Inhibition of human sGC expressed in HUVEC cells assessed as reduction in GMP level incubated for 48 hrs in presence of NPS by ELISA; assay type: cell-based
[13] = Inhibition of bovine lung sGC assessed as reduction in GMP level incubated for 48 hrs in presence of NPS by ELISA; assay type: tissue-based, Bos taurus
[14] = Inhibition of human sGC expressed in HUVEC cells assessed as reduction in GMP level incubated for 48 hrs by ELISA; assay type: cell-based
HUVEC [15] = experiment: Inhibition of full length human sGC expressed in HUVEC cells assessed as increase in oxidation of heme at 20 uM after 2 hrs by spectroscopic analysis; assay type: cell-based
[16] = Inhibition of angiogenesis in HEPC-CB1 cells assessed as decrease in total length of pseudovessels at 10 to 20 uM after 13 hrs by fluorescence inverted microscopic analysis; assay type: functional, Homo sapiens, HEPC-CB.1; details: dose 10-20 µM
[17] = Inhibition of angiogenesis in HEPC-CB1 cells assessed as decrease in pseudovessels at 10 to 20 uM after 13 hrs by fluorescence inverted microscopic analysis; assay type: functional, Homo sapiens, HEPC-CB.1; details: dose 10-20 µM
[18] = Inhibition of angiogenesis in HEPC-CB1 cells assessed as decrease in number of closed structures at 10 to 20 uM after 13 hrs by fluorescence inverted microscopic analysis; assay type: functional, Homo sapiens, HEPC-CB.1; details: dose 10-20 µM
Bos taurus = species: Bos taurus; experiment: Selectivity ratio of IC50 for inhibition of bovine lung sGC assessed as reduction in GMP level in presence of NPS/BAY-412272 to IC50 for inhibition of bovine lung sGC assessed as reduction in GMP level in presence of NPS; assay type: tissue-based
[19] = Inhibition of human sGC expressed in HUVEC cells assessed as reduction in GMP level incubated for 24 hrs by ELISA; assay type: cell-based
[20] = Inhibition of bovine lung sGC assessed as reduction in GMP level incubated for 2 hrs in presence of NPS/BAY-412272 by ELISA; assay type: tissue-based, Bos taurus
[21] = Inhibition of bovine lung sGC assessed as reduction in GMP level incubated for 2 hrs in presence of BAY-412272 by ELISA; assay type: tissue-based, Bos taurus
[22] = target: T1, Dopamine beta-hydroxylase (Homo sapiens, UniProt P09172); experiment: Inhibition of Dopamine beta-hydroxylase (unknown origin) incubated for 10 mins
T1 sequence (P09172 whole entry): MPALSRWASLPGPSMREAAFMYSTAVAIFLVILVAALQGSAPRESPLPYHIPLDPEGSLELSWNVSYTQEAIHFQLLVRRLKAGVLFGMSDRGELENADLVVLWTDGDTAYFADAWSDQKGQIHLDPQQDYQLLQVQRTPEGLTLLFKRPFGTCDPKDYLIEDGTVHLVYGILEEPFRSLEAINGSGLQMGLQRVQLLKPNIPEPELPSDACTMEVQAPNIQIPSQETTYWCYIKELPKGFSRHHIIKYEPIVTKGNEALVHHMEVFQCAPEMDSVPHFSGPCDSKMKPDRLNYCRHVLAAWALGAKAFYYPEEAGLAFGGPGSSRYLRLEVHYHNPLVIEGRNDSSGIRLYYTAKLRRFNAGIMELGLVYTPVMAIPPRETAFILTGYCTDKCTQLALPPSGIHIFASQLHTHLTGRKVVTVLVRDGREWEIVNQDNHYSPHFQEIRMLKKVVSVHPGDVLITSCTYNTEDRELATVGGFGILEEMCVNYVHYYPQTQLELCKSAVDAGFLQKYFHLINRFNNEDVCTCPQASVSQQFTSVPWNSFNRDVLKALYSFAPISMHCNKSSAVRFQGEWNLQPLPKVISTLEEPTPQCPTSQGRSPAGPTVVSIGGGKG

HUVEC [23] = experiment: Inhibition of human sGC expressed in HUVEC cells assessed as reduction in GMP level at 20 uM in presence of NPS/BAY-412272 by ELISA relative to control; assay type: cell-based
[24] = Inhibition of rat small intestine GST using CDNB as substrate by spectrophotometric method; assay type: tissue-based
HEPC-CB.1 [25] = experiment: Inhibition of angiogenesis in HEPC-CB1 cells assessed as decrease in pseudovessels at 20 uM after 13 hrs by fluorescence inverted microscopic analysis; assay type: functional, cell-based; details: Homo sapiens
HEPC-CB.1 [26] = experiment: Inhibition of angiogenesis in HEPC-CB1 cells assessed as decrease in number of closed structures at 20 uM after 13 hrs by fluorescence inverted microscopic analysis; assay type: functional, cell-based; details: Homo sapiens
HEPC-CB.1 [27] = experiment: Inhibition of angiogenesis in HEPC-CB1 cells assessed as decrease in total length of pseudovessels at 20 uM after 13 hrs by fluorescence inverted microscopic analysis; assay type: functional, cell-based; details: Homo sapiens
Hepatocyte = experiment: Cytotoxicity against rat hepatocytes assessed as induction intracellular LDH release incubated for 8 to 24 hrs; assay type: cell-based
[28] = Inhibition of Francisella tularensis FabZ
[29] = Inhibition of Yersinia pestis FabZ

Compound: COc1c(O)c2c(=O)cc(OC)c3c4c(OC)cc(O)c5c(=O)c(OC)c6c(c(c1[C@H](C(C)=O)[C@](C)(O)C6)c23)c54
- Ratio IC50 (HUVEC [1]): 2
- IC50 [2]: 800 nM
- inhibition (HEPC-CB.1 [3]): Active
- IC50 [4]: 1500 nM
- inhibition (HEPC-CB.1 [5]): Active
- IC50 [6]: 1.5 µM
- Ratio IC50 (HUVEC [7]): 2
- inhibition (HEPC-CB.1 [8]): Active
- inhibition (HUVEC [9]): < 95%
- IC50 [10]: 1500 nM
- Ratio IC50 (HUVEC [11]): 3

Compound: O=C1C(O)=C(O)C(=O)c2c(O)c(Cl)cc(O)c21
- IC50 [12]: 13 µM
- IC50 [13]: 3 µM
- IC50 [14]: 12 µM
- inhibition (HUVEC [15]): inactive

Compound: O=C1C(O)=C(O)C(=O)c2c(O)ccc(O)c21
- IC50 [12]: 10 µM
- IC50 [13]: 5 µM
- fold change (FC) [16]: 2
- fold change (FC) [17]: 2
- IC50 [14]: 12 µM
- fold change (FC) [18]: 2
- inhibition (HUVEC [15]): inactive

Compound: CC(=O)OC1=C(O)C(=O)c2c(OC(C)=O)ccc(OC(C)=O)c2C1=O
- Ratio IC50 (Bos taurus): 2
- IC50 [4]: 500 nM
- IC50 [19]: 29 µM
- IC50 [20]: 1000 nM
- IC50 [6]: 28 µM
- IC50 [21]: 1400 nM
- IC50 [10]: 200 nM
- inhibition (HUVEC [15]): Active

Compound: Cc1cc(O)c2c(=O)c3c(O)cc(O)c4c5c(O)cc(O)c6c(=O)c7c(O)cc(C)c8c1c2c(c34)c(c78)c65 [HYPERICIN]
- IC50 [2]: 400 nM
- inhibition (HEPC-CB.1 [3]): Active
- IC50 [4]: 400 nM
- inhibition (HEPC-CB.1 [5]): Active
- IC50 [20]: 350 nM
- IC50 [6]: 0.7 µM
- Ratio IC50 (HUVEC [7]): 2
- inhibition (HEPC-CB.1 [8]): Active
- IC50 [22]: 21 µM
- inhibition (HUVEC [9]): < 95%
- IC50 [21]: 320 nM
- inhibition (HUVEC [23]): Active
- IC50 [10]: 200 nM
- Ki [24]: 200 nM
- Ratio IC50 (HUVEC [11]): 3

Compound: COc1cc(C)c2c(c1C=O)Oc1c(c(C)c(O)c3c1C(O)OC3=O)OC2=O (configuration not stated) [STICTIC ACID]
- Ratio IC50 (Bos taurus): 2
- IC50 [4]: 300 nM
- IC50 [19]: 44 µM
- IC50 [20]: 2500 nM
- inhibition (HEPC-CB.1 [25]): Active
- IC50 [6]: 47 µM
- inhibition (HEPC-CB.1 [26]): Active
- inhibition (HEPC-CB.1 [27]): Active
- IC50 [21]: 2600 nM
- IC50 (Hepatocyte): ≤ 13 µM
- IC50 [28]: 13 µM
- IC50 [10]: 200 nM
- IC50 [29]: 13 µM
- inhibition (HUVEC [15]): inactive

Compound: COc1cc(C/C=C/c2ccccc2)c(OC)cc1O [VIOLASTYRENE]
- Ratio IC50 (Bos taurus): 2
- IC50 [4]: 800 nM
- IC50 [19]: 16 µM
- IC50 [20]: 1800 nM
- IC50 [6]: 16 µM
- IC50 [21]: 4900 nM
- IC50 [10]: 800 nM
- inhibition (HUVEC [15]): Active
